Assay results from ChEMBL document CHEMBL4507292 (2021).

Key:
[1] = system: Tyrosine-protein kinase ABL1 (Homo sapiens), P00519 [M351T]; conditions: Compound concentration 1000.0 nM
[2] = biological target: ALK tyrosine kinase receptor (Homo sapiens) (UniProt Q9UM73); conditions: Compound concentration 1000.0 nM
[3] = biological target: Mitogen-activated protein kinase kinase kinase 6 (Homo sapiens) (UniProt O95382); conditions: Compound concentration 1000.0 nM
[4] = biological target: Bone morphogenetic protein receptor type-2 (Homo sapiens) (UniProt Q13873); conditions: Compound concentration 1000.0 nM
[5] = biological target: Serine/threonine-protein kinase B-raf (Homo sapiens) (UniProt P15056); conditions: Compound concentration 1000.0 nM
[6] = biological target: Calcium/calmodulin-dependent protein kinase kinase 1 (Homo sapiens) (UniProt Q8N5S9); conditions: Compound concentration 1000.0 nM
[7] = biological target: Cyclin-dependent kinase 8 (Homo sapiens) (UniProt P49336); conditions: Compound concentration 1000.0 nM
[8] = biological target: Casein kinase I isoform alpha (Homo sapiens) (UniProt P48729); conditions: Compound concentration 1000.0 nM
[9] = biological target: Ephrin type-A receptor 3 (Homo sapiens) (UniProt P29320); conditions: Compound concentration 1000.0 nM
[10] = biological target: Ephrin type-B receptor 4 (Homo sapiens) (UniProt P54760); conditions: Compound concentration 1000.0 nM
[11] = biological target: Mitogen-activated protein kinase 6 (Homo sapiens) (UniProt Q16659); conditions: Compound concentration 1000.0 nM
[12] = biological target: Fibroblast growth factor receptor 3 (Homo sapiens) (UniProt P22607); conditions: Compound concentration 1000.0 nM
[13] = system: Receptor-type tyrosine-protein kinase FLT3 (Homo sapiens), P36888 [UNDEFINED MUTATION]; conditions: Compound concentration 1000.0 nM
[14] = system: Receptor-type tyrosine-protein kinase FLT3 (Homo sapiens), P36888 [R834Q]; conditions: Compound concentration 1000.0 nM
[15] = biological target: Cyclin-G-associated kinase (Homo sapiens) (UniProt O14976); conditions: Compound concentration 1000.0 nM
[16] = biological target: LIM domain kinase 2 (Homo sapiens) (UniProt P53671); conditions: Compound concentration 1000.0 nM
[17] = biological target: MAP/microtubule affinity-regulating kinase 4 (Homo sapiens) (UniProt Q96L34); conditions: Compound concentration 1000.0 nM
[18] = biological target: Serine/threonine-protein kinase MRCK beta (Homo sapiens) (UniProt Q9Y5S2); conditions: Compound concentration 1000.0 nM
[19] = biological target: Myosin light chain kinase, smooth muscle (Homo sapiens) (UniProt Q15746); conditions: Compound concentration 1000.0 nM
[20] = biological target: Serine/threonine-protein kinase 38-like (Homo sapiens) (UniProt Q9Y2H1); conditions: Compound concentration 1000.0 nM
[21] = biological target: Mitogen-activated protein kinase 11 (Homo sapiens) (UniProt Q15759); conditions: Compound concentration 1000.0 nM
[22] = biological target: Serine/threonine-protein kinase PAK 1 (Homo sapiens) (UniProt Q13153); conditions: Compound concentration 1000.0 nM
[23] = biological target: Cyclin-dependent kinase 14 (Homo sapiens) (UniProt O94921); conditions: Compound concentration 1000.0 nM
[24] = system: Phosphatidylinositol 4,5-bisphosphate 3-kinase catalytic subunit alpha isoform (Homo sapiens), P42336 [Q546K]; conditions: Compound concentration 1000.0 nM
[25] = biological target: Membrane-associated tyrosine- and threonine-specific cdc2-inhibitory kinase (Homo sapiens) (UniProt Q99640); conditions: Compound concentration 1000.0 nM
[26] = biological target: Serine/threonine-protein kinase N1 (Homo sapiens) (UniProt Q16512); conditions: Compound concentration 1000.0 nM
[27] = biological target: cAMP-dependent protein kinase catalytic subunit PRKX (Homo sapiens) (UniProt P51817); conditions: Compound concentration 1000.0 nM
[28] = system: Proto-oncogene tyrosine-protein kinase receptor Ret (Homo sapiens), P07949 [V804M]; conditions: Compound concentration 1000.0 nM
[29] = biological target: Receptor-interacting serine/threonine-protein kinase 1 (Homo sapiens) (UniProt Q13546); conditions: Compound concentration 1000.0 nM
[30] = biological target: Ribosomal protein S6 kinase alpha-4 (Homo sapiens) (UniProt O75676); conditions: Compound concentration 1000.0 nM
[31] = biological target: Ribosomal protein S6 kinase alpha-1 (Homo sapiens) (UniProt Q15418); conditions: Compound concentration 1000.0 nM
[32] = biological target: Serine/threonine-protein kinase Sgk1 (Homo sapiens) (UniProt O00141); conditions: Compound concentration 1000.0 nM
[33] = biological target: High affinity nerve growth factor receptor (Homo sapiens) (UniProt P04629); conditions: Compound concentration 1000.0 nM
[34] = biological target: Dual specificity protein kinase TTK (Homo sapiens) (UniProt P33981); conditions: Compound concentration 1000.0 nM
[35] = biological target: Wee1-like protein kinase (Homo sapiens) (UniProt P30291); conditions: Compound concentration 1000.0 nM
[36] = biological target: Mitogen-activated protein kinase kinase kinase 19 (Homo sapiens) (UniProt Q56UN5); conditions: Compound concentration 1000.0 nM
[37] = biological target: T1, 5-hydroxytryptamine receptor 3A (Homo sapiens) (UniProt P46098); conditions: Compound concentration 10.0 uM
T1 sequence (whole entry): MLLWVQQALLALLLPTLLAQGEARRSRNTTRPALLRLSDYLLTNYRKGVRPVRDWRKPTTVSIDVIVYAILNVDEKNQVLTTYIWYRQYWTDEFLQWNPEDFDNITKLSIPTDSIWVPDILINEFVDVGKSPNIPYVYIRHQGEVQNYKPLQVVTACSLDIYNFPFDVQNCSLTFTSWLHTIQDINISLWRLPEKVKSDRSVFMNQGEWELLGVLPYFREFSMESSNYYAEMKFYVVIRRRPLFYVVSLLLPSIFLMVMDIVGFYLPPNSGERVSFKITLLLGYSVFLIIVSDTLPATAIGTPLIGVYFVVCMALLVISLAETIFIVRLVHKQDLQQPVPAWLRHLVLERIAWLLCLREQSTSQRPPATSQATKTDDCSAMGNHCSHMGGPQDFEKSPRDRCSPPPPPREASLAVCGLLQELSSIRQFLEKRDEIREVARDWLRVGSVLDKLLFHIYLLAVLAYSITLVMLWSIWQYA

[38] = biological target: 5-hydroxytryptamine receptor 6 (Homo sapiens) (UniProt P50406); conditions: Compound concentration 10.0 uM
[39] = biological target: Histamine H4 receptor (Homo sapiens) (UniProt Q9H3N8); conditions: Compound concentration 10.0 uM

Sequence of Serine/threonine-protein kinase N1 (Homo sapiens) (Q16512 2-942 limits assumed): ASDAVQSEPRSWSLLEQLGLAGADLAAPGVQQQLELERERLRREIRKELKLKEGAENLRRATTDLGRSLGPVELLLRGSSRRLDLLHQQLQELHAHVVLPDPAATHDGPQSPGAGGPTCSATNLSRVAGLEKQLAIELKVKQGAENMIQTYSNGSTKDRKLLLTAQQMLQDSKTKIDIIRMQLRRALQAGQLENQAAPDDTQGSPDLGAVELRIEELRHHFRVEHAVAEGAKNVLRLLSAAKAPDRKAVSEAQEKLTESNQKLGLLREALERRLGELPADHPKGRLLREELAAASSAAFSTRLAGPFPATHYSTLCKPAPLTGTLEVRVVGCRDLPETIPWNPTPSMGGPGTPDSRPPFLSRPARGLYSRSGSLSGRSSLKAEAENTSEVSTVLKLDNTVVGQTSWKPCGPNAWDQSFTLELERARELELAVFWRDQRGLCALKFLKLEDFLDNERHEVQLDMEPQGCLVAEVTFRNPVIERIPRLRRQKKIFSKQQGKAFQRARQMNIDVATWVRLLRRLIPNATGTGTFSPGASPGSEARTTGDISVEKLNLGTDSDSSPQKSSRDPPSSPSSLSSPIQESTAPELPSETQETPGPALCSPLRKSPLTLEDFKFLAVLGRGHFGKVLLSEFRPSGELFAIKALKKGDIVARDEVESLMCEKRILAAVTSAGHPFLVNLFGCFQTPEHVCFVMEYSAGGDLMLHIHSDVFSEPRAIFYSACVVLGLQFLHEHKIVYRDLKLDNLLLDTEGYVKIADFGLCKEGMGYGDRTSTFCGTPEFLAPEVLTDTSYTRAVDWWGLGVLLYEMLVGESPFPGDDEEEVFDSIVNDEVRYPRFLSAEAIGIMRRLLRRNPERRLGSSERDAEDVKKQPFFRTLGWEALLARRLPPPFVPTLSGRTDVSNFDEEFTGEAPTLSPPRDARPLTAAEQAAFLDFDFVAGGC
Sequence of Cyclin-G-associated kinase (Homo sapiens) (O14976 whole entry, the tested form may be a part): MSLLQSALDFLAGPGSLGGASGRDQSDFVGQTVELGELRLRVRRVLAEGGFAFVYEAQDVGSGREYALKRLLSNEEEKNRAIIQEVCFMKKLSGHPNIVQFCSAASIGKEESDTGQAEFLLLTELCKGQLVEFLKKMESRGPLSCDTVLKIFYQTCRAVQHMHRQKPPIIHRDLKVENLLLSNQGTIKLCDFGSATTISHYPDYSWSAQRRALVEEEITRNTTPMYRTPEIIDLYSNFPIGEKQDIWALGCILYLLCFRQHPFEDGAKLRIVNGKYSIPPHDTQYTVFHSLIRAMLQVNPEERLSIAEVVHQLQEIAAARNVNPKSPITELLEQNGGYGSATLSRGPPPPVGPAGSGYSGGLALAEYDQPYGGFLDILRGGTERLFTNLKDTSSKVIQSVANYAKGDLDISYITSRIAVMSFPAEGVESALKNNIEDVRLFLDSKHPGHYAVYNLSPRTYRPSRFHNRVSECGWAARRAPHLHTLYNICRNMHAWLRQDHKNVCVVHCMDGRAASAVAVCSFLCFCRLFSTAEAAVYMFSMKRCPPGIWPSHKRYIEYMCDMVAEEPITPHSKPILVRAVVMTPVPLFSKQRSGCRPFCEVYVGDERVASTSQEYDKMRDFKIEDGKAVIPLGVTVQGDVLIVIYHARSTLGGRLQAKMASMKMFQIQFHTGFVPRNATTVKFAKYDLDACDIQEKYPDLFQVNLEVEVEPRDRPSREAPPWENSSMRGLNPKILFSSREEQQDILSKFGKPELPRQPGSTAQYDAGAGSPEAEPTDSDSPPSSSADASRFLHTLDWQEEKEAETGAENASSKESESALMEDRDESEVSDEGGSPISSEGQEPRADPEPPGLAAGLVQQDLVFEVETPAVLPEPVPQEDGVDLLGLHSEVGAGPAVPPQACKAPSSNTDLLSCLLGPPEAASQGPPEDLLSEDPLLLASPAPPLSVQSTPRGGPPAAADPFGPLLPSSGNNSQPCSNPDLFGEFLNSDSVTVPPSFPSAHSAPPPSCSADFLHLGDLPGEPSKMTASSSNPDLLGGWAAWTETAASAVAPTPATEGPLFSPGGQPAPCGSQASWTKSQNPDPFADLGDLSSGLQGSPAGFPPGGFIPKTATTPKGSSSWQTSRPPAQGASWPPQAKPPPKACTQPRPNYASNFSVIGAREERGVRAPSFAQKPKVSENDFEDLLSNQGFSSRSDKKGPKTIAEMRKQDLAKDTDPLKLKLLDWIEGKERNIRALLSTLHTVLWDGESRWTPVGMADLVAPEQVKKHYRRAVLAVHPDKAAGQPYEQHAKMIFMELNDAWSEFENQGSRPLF
Sequence of Mitogen-activated protein kinase 6 (Homo sapiens) (Q16659 whole entry): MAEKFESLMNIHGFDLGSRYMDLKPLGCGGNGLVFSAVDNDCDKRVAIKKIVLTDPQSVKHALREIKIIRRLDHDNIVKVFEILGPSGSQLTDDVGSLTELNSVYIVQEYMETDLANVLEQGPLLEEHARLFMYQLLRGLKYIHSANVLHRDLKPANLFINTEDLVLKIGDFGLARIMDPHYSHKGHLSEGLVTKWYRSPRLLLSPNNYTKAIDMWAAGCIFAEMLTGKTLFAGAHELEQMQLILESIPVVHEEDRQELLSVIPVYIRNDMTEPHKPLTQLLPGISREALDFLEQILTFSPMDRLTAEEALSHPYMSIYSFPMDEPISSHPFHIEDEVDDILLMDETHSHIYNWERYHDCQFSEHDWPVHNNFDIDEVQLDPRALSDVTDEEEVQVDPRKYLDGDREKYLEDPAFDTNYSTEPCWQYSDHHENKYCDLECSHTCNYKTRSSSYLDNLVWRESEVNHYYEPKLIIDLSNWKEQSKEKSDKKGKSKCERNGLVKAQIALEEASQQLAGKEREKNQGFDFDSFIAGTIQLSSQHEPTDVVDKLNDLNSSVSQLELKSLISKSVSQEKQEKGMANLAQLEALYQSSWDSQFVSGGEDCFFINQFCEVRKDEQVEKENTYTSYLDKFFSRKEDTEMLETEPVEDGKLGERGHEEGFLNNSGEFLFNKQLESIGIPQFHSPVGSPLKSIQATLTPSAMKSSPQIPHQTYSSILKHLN
Sequence of Calcium/calmodulin-dependent protein kinase kinase 1 (Homo sapiens) (Q8N5S9 whole entry, looked up): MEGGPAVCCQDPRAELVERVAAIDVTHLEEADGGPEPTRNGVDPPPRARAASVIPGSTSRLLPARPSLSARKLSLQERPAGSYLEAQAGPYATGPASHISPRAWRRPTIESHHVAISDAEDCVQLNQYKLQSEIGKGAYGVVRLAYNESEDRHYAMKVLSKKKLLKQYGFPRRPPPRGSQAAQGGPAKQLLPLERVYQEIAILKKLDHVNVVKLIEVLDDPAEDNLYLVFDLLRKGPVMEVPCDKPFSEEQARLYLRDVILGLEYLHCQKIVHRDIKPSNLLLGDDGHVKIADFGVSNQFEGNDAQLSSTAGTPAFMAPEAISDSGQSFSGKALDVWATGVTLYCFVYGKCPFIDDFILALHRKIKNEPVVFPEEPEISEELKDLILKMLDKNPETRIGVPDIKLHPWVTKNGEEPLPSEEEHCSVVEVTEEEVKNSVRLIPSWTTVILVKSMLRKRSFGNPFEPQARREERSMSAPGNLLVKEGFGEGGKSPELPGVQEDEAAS
Sequence of Serine/threonine-protein kinase Sgk1 (Homo sapiens) (O00141 whole entry): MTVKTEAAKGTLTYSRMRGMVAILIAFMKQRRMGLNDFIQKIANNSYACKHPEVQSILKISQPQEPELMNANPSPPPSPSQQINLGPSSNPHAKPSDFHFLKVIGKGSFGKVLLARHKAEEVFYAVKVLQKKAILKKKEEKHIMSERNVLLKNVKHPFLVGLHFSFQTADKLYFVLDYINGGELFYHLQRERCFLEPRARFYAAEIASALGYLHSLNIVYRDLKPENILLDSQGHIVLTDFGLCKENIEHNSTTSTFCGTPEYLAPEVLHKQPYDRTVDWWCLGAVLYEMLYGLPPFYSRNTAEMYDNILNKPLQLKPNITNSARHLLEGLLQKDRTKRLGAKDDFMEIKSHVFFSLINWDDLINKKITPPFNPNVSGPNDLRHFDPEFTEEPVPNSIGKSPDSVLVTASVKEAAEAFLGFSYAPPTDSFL
Sequence of Bone morphogenetic protein receptor type-2 (Homo sapiens) (Q13873 whole entry): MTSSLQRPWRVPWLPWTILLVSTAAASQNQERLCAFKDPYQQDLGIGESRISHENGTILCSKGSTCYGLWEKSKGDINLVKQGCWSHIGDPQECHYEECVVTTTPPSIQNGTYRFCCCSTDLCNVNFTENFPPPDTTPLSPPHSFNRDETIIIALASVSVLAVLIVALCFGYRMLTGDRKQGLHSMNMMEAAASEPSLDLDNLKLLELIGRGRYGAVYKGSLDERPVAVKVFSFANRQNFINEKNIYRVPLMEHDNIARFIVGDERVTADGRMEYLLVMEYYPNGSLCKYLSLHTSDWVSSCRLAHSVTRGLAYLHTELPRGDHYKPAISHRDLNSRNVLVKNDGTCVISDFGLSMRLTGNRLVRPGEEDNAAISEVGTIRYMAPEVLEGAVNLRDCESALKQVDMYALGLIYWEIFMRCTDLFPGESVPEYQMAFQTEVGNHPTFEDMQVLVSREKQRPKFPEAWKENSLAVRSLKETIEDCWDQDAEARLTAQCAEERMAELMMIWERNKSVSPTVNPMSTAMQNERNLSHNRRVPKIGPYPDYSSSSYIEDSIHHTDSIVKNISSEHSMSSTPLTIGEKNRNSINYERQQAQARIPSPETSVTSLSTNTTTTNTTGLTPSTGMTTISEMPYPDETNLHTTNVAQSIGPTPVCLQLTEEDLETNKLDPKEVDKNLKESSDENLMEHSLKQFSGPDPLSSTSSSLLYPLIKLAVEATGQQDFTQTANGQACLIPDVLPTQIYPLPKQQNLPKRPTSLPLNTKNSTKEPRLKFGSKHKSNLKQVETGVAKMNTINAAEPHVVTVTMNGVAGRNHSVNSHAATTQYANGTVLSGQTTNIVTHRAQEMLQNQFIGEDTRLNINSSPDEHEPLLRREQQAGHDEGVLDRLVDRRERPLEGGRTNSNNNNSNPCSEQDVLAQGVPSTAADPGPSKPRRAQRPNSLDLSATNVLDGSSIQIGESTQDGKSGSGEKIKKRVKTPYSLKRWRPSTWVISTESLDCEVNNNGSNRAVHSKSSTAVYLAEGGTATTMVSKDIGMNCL

Cc1c(C(=O)O)cc(-c2ccc(C3CCNCC3)cc2)c2ccc(-c3ccc(C(F)(F)F)cc3)cc12 [PPTN-NC]
inactive: residual activity [1] 100% | residual activity [2] 100% | residual activity [3] 100% | residual activity [4] 100% | residual activity [5] 100% | residual activity [6] 100% | residual activity [7] 100% | residual activity [8] 81% | residual activity [9] 100% | residual activity [10] 100% | residual activity [11] 100% | residual activity [12] 100% | residual activity [13] 100% | residual activity [14] 100% | residual activity [15] 100% | residual activity [16] 100% | residual activity [17] 97% | residual activity [18] 100% | residual activity [19] 82% | residual activity [20] 100% | residual activity [21] 100% | residual activity [22] 100% | residual activity [23] 100% | residual activity [24] 100% | residual activity [25] 100% | residual activity [26] 100% | residual activity [27] 100% | residual activity [28] 98% | residual activity [29] 100% | residual activity [30] 100% | residual activity [31] 100% | residual activity [32] 100% | residual activity [33] 100% | residual activity [34] 100% | residual activity [35] 80% | residual activity [36] 100% | inhibition [37] 4.62% | inhibition [38] 13.5% | inhibition [39] -4.71%

O=C(O)c1cc(-c2ccc(C3CCNCC3)cc2)c2ccc(-c3ccc(C(F)(F)F)cc3)cc2c1 [PPTN]
inactive: residual activity [1] 100% | residual activity [2] 100% | residual activity [3] 100% | residual activity [4] 100% | residual activity [5] 100% | residual activity [6] 100% | residual activity [7] 100% | residual activity [8] 83% | residual activity [9] 100% | residual activity [10] 100% | residual activity [11] 100% | residual activity [12] 100% | residual activity [13] 100% | residual activity [14] 100% | residual activity [15] 100% | residual activity [16] 100% | residual activity [17] 100% | residual activity [18] 100% | residual activity [19] 85% | residual activity [20] 100% | residual activity [21] 100% | residual activity [22] 100% | residual activity [23] 100% | residual activity [24] 100% | residual activity [25] 100% | residual activity [26] 100% | residual activity [27] 100% | residual activity [28] 100% | residual activity [29] 100% | residual activity [30] 100% | residual activity [31] 100% | residual activity [32] 100% | residual activity [33] 100% | residual activity [34] 100% | residual activity [35] 98% | residual activity [36] 100% | inhibition [37] 4.14% | inhibition [38] 5.62% | inhibition [39] -6.7%
